Data taken from patent US8715714B2, “Uses of rare earth elements for hair improvement” (Micellbio Co., Ltd., priority 2006, dated 2014).
“Also recorded” adds a separate entry of the source.

How the values were obtained:
Format in all cases: cell-based
[1] = biological target: T1, tyrosinase (Homo sapiens, UniProt P14679); assay: Activity of tyrosinase in Sk-mel-31 cells; conditions: 10 μg to 1 pg, versus control group, FIG. 7
T1 sequence (P14679 19-529): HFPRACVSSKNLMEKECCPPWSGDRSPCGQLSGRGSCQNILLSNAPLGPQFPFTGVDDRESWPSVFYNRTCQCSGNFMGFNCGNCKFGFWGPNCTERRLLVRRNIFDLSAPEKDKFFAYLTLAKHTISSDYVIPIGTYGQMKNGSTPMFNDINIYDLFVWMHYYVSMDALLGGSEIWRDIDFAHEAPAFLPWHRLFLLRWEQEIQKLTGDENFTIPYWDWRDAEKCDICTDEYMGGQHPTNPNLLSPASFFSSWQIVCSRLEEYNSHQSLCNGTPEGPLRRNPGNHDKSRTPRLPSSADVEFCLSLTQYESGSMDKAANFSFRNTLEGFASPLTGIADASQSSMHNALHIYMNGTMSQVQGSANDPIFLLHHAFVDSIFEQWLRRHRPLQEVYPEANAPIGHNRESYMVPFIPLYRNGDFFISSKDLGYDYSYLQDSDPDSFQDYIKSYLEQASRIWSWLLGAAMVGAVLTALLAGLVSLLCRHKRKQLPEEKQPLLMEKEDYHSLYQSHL
Experimental: (§1) In order to evaluate the effect of promoting black hair formation, the activity of tyrosinase was measured in Sk-mel-31, a human melanoma cell, and B16F10, a mouse melanoma cell. The cells were cultivated in an incubator at 37° C. (5% CO2 and 60% relative humidity) while maintaining a density of 1×10^6 cells/ml for Sk-mel-31 and 2×10^5 cells/ml for B16F10 in RPMI-1640 medium (containing 1% penicillin-streptomycin and 10% fetal bovine serum). The cells were stabilized in the incubator for 24 hours, and the culture medium containing FBS was replaced by FBS-free RPMI-1640. The cells were treated with mixed rare earth elements of 10 μg, 1 μg, 100 ng, 10 ng, 1 ng, 100 pg, […] and 1 pg, respectively, and individual rare earth elements of 10 ng. In order to measure the activity of tyrosinase, the cells were cultivated for a given time, centrifuged (100×g) for 10 minutes, and harvested. […] The cells were placed in an ice bath for one hour, and centrifuged with 40,000×g at 4° C. for 20 minutes to obtain a cell extract. 130 μl of 5 mM L-DOPA (L-3,4-dihydroxyphenylalanine) and 120 μl of 25 mM MBTH (3-methyl-2-benzothiazolinone hydrazone) were added to 250 μl of an analysis buffer containing 100 mM potassium phosphate (pH 7.1), 4% N,N-dimethylformamide and 0.1% (v/v) Triton X-100, and reacted in a thermostat at 37° C. for 5 minutes, and then, 100 μg of the cell extract was added thereto, and further reacted for 2 hours. Then, 500 μl of 1 M perchloric acid was added thereto and the mixture was centrifuged with 9,000×g at room temperature for 20 minutes. Then, the supernatant was taken and absorbance was measured at 505 nm.

[2] = biological target: T2, tyrosinase (Mus musculus, UniProt P11344); assay: Activity of tyrosinase in B16F10 cells; conditions: 10 μg to 1 pg, versus control group, FIG. 8
T2 sequence (P11344 19-533): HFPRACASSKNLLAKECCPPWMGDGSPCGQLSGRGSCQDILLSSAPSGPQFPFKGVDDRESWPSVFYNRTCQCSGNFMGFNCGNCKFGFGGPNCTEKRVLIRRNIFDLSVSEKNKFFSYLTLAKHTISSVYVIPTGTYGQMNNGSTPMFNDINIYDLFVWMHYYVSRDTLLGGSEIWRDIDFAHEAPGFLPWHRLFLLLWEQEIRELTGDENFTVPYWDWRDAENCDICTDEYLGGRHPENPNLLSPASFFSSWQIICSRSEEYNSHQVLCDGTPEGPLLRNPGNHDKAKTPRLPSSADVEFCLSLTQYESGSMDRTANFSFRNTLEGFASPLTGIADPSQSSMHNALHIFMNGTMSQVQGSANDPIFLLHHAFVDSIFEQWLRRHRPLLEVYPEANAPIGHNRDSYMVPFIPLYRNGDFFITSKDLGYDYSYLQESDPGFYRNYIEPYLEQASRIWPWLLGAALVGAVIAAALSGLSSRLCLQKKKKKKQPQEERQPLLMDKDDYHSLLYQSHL
Experimental: as §1

[3] = tested on: tyrosinase; assay: Expression of tyrosinase in Sk-mel-31 cells by Western blotting; conditions: human melanoma cell line; versus control group; FIG. 9
Experimental: (§2) Cells were cultivated according to the same process as in Experimental Example 6, and centrifuged (100×g) for 10 minutes to harvest the cells. In order to measure the expression of tyrosinase by Western blotting, 100 μg of the cell extract was resolved on 10% SDS-PAGE, transferred to NC, and then, blocked with TBS containing 5% skim milk. Then, it was reacted with a primary antibody diluted to 1:2,500 (monoclonal anti-tyrosine hydroxylase clone Th-2) and a secondary antibody diluted to 1:5,000 (anti-mouse IgG), respectively, and washed with TBS containing 0.2% Tween-20, and then, photosensitized on an X-ray film using an ECL detection kit. Then, OD values were graphed using an image analysis program of LabWork™ (version 4.4.00.0).

[4] = tested on: tyrosinase; assay: Expression of tyrosinase in B16F10 cells by Western blotting; conditions: mouse melanoma cell line; versus control group; FIG. 9
Experimental: as §2

[5] = tested on: Sk-mel-31, a human melanoma cell; assay: Melanin production in Sk-mel-31 cells; conditions: human melanoma cell line; versus control group; FIG. 10
Experimental: (§3) Cells were cultivated according to the same process as in Experimental Example 6, and centrifuged (100×g) for 10 minutes to harvest the cells. In order to measure the production of melanin, 200 μg of the cell extract was added to 1 N NaOH (total 1 ml), allowed to stand at room temperature for 30 minutes, and then, absorbance was measured at 400 nm.
(§4) In order to measure the production of melanin, the cells were cultivated and harvested according to the same process as that of Experimental Example 6, and the production of melanin was measured according to the same process as that of Experimental Example 8.

[6] = tested on: B16F10, a mouse melanoma cell; assay: Melanin production in B16F10 cells; conditions: mouse melanoma cell line; versus control group; FIG. 10
Experimental: as §3, §4

[7] = tested on: Mouse embryo fibroblasts NIH 3T3; assay: MTT cell proliferation assay in NIH 3T3 fibroblasts
Experimental: Mouse embryo fibroblasts NIH 3T3 were cultivated in an incubator at 37° C. ([…], 5% CO2 and 60% humidity) while maintaining a density of 2×10^6 or 4×10^6 cells/ml in Dulbecco's modified Eagle's media (DMEM) supplemented with 10% fetal bovine serum (FBS) and 1% penicillin-streptomycin. Cell proliferation was measured by using MTT [3-(3,5-dimethyl-thiazol-2-yl)-2,5-diphenyltetrazolium bromide] assay. For MTT assay, the cells were plated in a 96-well plate at 2×10^3 cells/ml per well, and treated with a culture medium supplemented with 10% FBS. The cells were stabilized in the incubator for 24 hours, the culture medium supplemented with FBS was replaced by FBS-free DMEM, and the cells were treated with mixed rare earth elements of 10 μg, 1 μg, 100 ng, 10 ng, 1 ng, 100 pg, 10 pg and 1 pg, respectively, and individual rare earth elements of 10 ng. Then, the cells were cultivated for a given time, 50 μl per well of MTT (2 mg/l ml sterilized distilled water) was added thereto, and the mixture was reacted for 4 hours. The reaction mixture was treated with DMSO (dimethyl sulfoxide) and shaken for 30 minutes. Absorbance was measured at 540 nm using an ELISA reader (550, Bio-rad).

[Sc] [Sc, scandium]
tyrosinase activity [1]: substantially the same effect as mixed rare earth elements | tyrosinase activity [2]: substantially the same effect as mixed rare earth elements | expression of tyrosinase [3]: substantially the same effect | expression of tyrosinase [4]: substantially the same effect | melanin production [5]: substantially the same effect | melanin production [6]: substantially the same effect

[Ho] [Ho, holmium]
tyrosinase activity [1]: substantially the same effect as mixed rare earth elements | tyrosinase activity [2]: substantially the same effect as mixed rare earth elements | expression of tyrosinase [3]: substantially the same effect | expression of tyrosinase [4]: substantially the same effect | melanin production [5]: substantially the same effect | melanin production [6]: substantially the same effect

[Er] [Er, erbium]
tyrosinase activity [1]: substantially the same effect as mixed rare earth elements | tyrosinase activity [2]: substantially the same effect as mixed rare earth elements | expression of tyrosinase [3]: substantially the same effect | expression of tyrosinase [4]: substantially the same effect | melanin production [5]: substantially the same effect | melanin production [6]: substantially the same effect

[Pm] [Pm, promethium]
tyrosinase activity [1]: substantially the same effect as mixed rare earth elements | tyrosinase activity [2]: substantially the same effect as mixed rare earth elements | expression of tyrosinase [3]: substantially the same effect | expression of tyrosinase [4]: substantially the same effect | melanin production [5]: substantially the same effect | melanin production [6]: substantially the same effect

[Pr] [Pr, praseodymium]
tyrosinase activity [1]: substantially the same effect as mixed rare earth elements | tyrosinase activity [2]: substantially the same effect as mixed rare earth elements | expression of tyrosinase [3]: substantially the same effect | expression of tyrosinase [4]: substantially the same effect | melanin production [5]: substantially the same effect | melanin production [6]: substantially the same effect

[Yb] [Yb, ytterbium]
tyrosinase activity [1]: substantially the same effect as mixed rare earth elements | tyrosinase activity [2]: substantially the same effect as mixed rare earth elements | expression of tyrosinase [3]: substantially the same effect | expression of tyrosinase [4]: substantially the same effect | melanin production [5]: substantially the same effect | melanin production [6]: substantially the same effect

[Ce] [Ce, cerium]
cell proliferation compared with the non-treated group ([7]; 10 μg to 1 pg, FIG. 1): increased | cell proliferation compared with the non-treated group ([7]; 10 μg to 1 pg, FIG. 1, maximum): up to 1.69 times | cell proliferation compared with the non-treated group ([7]; each element of 10 ng, FIG. 2): most greatly increased | tyrosinase activity [1]: increased; also recorded: substantially the same effect as mixed rare earth elements; also recorded: most greatly increased | tyrosinase activity [2]: increased; also recorded: substantially the same effect as mixed rare earth elements; also recorded: most greatly increased | expression of tyrosinase [3]: substantially the same effect; also recorded: most greatly increased | melanin production [6]: substantially the same effect; also recorded: most greatly increased

[Y] [Y, yttrium]
tyrosinase activity [1]: substantially the same effect as mixed rare earth elements | tyrosinase activity [2]: substantially the same effect as mixed rare earth elements | expression of tyrosinase [3]: substantially the same effect | expression of tyrosinase [4]: substantially the same effect | melanin production [5]: substantially the same effect | melanin production [6]: substantially the same effect

[Dy] [Dy, dysprosium]
tyrosinase activity [1]: substantially the same effect as mixed rare earth elements | tyrosinase activity [2]: substantially the same effect as mixed rare earth elements | expression of tyrosinase [3]: substantially the same effect | expression of tyrosinase [4]: substantially the same effect | melanin production [5]: substantially the same effect | melanin production [6]: substantially the same effect

[Tb] [Tb, terbium]
tyrosinase activity [1]: substantially the same effect as mixed rare earth elements | tyrosinase activity [2]: substantially the same effect as mixed rare earth elements | expression of tyrosinase [3]: substantially the same effect | expression of tyrosinase [4]: substantially the same effect | melanin production [5]: substantially the same effect | melanin production [6]: substantially the same effect

[Tm] [Tm, thulium]
tyrosinase activity [1]: substantially the same effect as mixed rare earth elements | tyrosinase activity [2]: substantially the same effect as mixed rare earth elements | expression of tyrosinase [3]: substantially the same effect | expression of tyrosinase [4]: substantially the same effect | melanin production [5]: substantially the same effect | melanin production [6]: substantially the same effect
